Data from publication doi:10.1101/2024.09.20.614085v3 (biorxiv, 2026).

target: SARS-CoV-2 RdRp (nsp12-nsp7-nsp8 complex) (Severe acute respiratory syndrome coronavirus 2, UniProt P0DTD1); experiment: biochemical

Row | SMILES | EC50 [nM]
1 | O=c1ccn([C@@H]2O[C@H](COP(=O)(O)OP(=O)(O)OP(=O)(O)O)C[C@H]2O)c(=O)[nH]1 [3’-dUTP] | 751
2 | Cc1cn([C@@H]2O[C@H](COP(=O)(O)OP(=O)(O)OP(=O)(O)O)C[C@H]2O)c(=O)[nH]c1=O [5-methyl-3’-dUTP] | 107
3 | O=c1ccn([C@@H]2O[C@H](COP(=O)(O)OP(=O)(O)OP(=O)(O)O)[C@@H](O)[C@H]2O)c(=O)[nH]1 [UTP] | 47.9
